Like-named read-outs stand apart in the source and are kept apart here.
Key:
CYP2C19 [1] = conditions: cited from earlier work
[2] = parameters: method as in PMID 20804307; conditions: Iranian patients with erosive reflux esophagitis, cited from earlier work
CYP2C19 [3] = target: T1, CYP2C19 (Homo sapiens, UniProt P33261); assay: Omeprazole hydroxylation index (omeprazole/hydroxyomeprazole in plasma) as measure of CYP2C19 activity; type: in vivo; parameters: key to Median hydroxylation index / Median hydroxylation index (HI) / Mean HI ± SD: ratio: plasma omeprazole / 5-hydroxyomeprazole concentration at 3 h
T1 construct: volunteers took 20 mg omeprazole capsule (Abidi pharmaceuticals) with 250 milliliter tap water; from tissue; host or cells: in vivo, endogenous enzyme of healthy human volunteers; metabolites measured in plasma
T1 sequence (P33261 whole entry): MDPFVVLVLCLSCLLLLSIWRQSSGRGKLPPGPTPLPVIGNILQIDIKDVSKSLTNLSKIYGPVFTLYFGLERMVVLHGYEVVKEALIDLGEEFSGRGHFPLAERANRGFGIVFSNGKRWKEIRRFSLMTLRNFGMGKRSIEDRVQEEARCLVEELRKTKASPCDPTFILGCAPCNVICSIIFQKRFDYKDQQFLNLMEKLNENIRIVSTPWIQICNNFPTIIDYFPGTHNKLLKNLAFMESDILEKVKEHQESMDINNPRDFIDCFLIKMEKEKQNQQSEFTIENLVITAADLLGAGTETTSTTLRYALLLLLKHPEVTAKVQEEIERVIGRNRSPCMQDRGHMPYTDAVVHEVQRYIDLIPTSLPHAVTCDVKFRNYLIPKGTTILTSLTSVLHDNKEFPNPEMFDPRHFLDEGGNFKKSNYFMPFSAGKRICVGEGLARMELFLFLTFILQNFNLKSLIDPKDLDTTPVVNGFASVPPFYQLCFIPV
From the text: (§1) The study protocol was approved by ethics committee of Tehran University of Medical Sciences (ethical no. 11208). Generally one hundred and eighty (60 women and 120 men) unrelated healthy Iranian volunteers with the mean age of between 20–55 years and average body weight of 45–89 kg took part in this study. All participants signed written informed consent of this project. The study was completed by contribution of faculties of pharmacy of Tehran, Yazd, Kermanshah and Kerman University of Medical Sciences. The participants were students or stuffs of pharmacy schools, with no history of any illness or medicine consumption. No smoking and consumption of medicine that would affect CYP2C19 activity was permitted for one week before and during the study.
(§2) After an overnight fast for at least 8 hours, volunteers took 20 mg omeprazole capsule (Abidi pharmaceuticals) with 250 milliliter tap water. Ten ml venous blood sample was collected from each subject 3 hours after administration of omeprazole and transferred into tubes containing 10 μl of 10% EDTA. Five ml of blood samples were centrifuged for 5 min at 4000 rpm and the plasma was separated and transferred to Eppendorf tube and stored at −80°C up to the day of analysis. The other 5 ml blood samples were stored directly in −80°C for genotyping analysis.
(§3) Omeprazole powder was purchased from TMAD (Iran). 5-hydroxyomeprazole was a kind donation by AstraZeneca (Sweden). The concentration of omeprazole and 5-hydroxyomeprazole was analyzed by HPLC method as described by Rezk et al. with a few modifications. Briefly 500 μl plasma was extracted by liquid-liquid extraction using 1500 μl ethyl acetate. After orbital mixing for 10 min and centrifuging at 4000 × g for 10 min, the upper organic layer was separated and transferred to glass tube and then evaporated to dryness under gentle stream of air. Finally the residue was dissolved in 250 μl mobile phase and 100 μl of this sample was injected to HPLC system. The mobile phase was a combination of dibasic sodium phosphate buffer (0.025 mol/lit, pH 6): acetonitrile: methanol (73: 18: 8 V/V/V). The HPLC apparatus consisted of a low pressure HPLC pump, UV detector (λ = 302 nm) all from Knauer (Berlin, Germany). The chromatographic separation was performed by using Chromolit™ Performance RP-18e 100 mm × 4.6 mm, 5 μm particle size. Flow rate was adjusted to 1 ml/min.
(§4) The allele frequencies differences between population were estimated using two-tailed Fisher’s exact test. The 95% confidence intervals (CI) were calculated using Confidence Interval Analysis software. The relation of sex and genotype was assessed by two tailed Fisher’s exact test. The observed and expected frequencies were calculated by using Hardy-Weinberg equation. The two-tailed Fisher’s exact test was used to evaluate deviation of genotype frequencies in the studied population from Hardy-Weinberg equilibrium. The enzyme activity was compared by using omeprazole hydroxylation index. The hydroxylation index (HI) of omeprazole 3 hours after administration of omeprazole was calculated by dividing omeprazole to 5-hydroxyomeprazol plasma concentration. The mean HI in different genotypes were compared by Mann–Whitney two tailed test. The impact of sex on HI of omeprazole was also evaluated using Mann–Whitney two tailed test. The inter-individual variability in metabolism of omeprazole was represented by probit plot. For drawing probit plot, the log of HI was calculated, the antimode value was determined using Microsoft office excel 2010. The normality of HI distribution was analyzed by frequency distribution histogram and also by Kolmogorov- Smirnov test. All statistical analyses were performed by Sigma Plot version 12.0 and Graph Pad Prism version 5 softwares and P < 0.05 was considered as statistically significant difference.

CYP2C19 [4] = assay: as above; type: in vivo, human; parameters: key to Median hydroxylation index / Median hydroxylation index (HI) / Mean HI ± SD: ratio: plasma omeprazole / 5-hydroxyomeprazole concentration at 3 h; conditions: for Mean HI ± SD: 3 h after single oral 20 mg omeprazole; for Median hydroxylation index: all genotypes
From the text: as §1, §2, §3, §4

[5] = Plasma concentration of omeprazole and hydroxyomeprazole by HPLC 3 hours after a single oral 20 mg omeprazole dose; type: in vivo, human; conditions: for concentration at 3 h: human, plasma, po, 20 mg, 3 h after single oral 20 mg omeprazole, read-out: Mean OMP concentration ± SD
From the text: as §1, §2, §3

**Q.** With `COc1ccc2[nH]c([S+]([O-])Cc3ncc(C)c(OC)c3C)nc2c1` (stereo not drawn) [omeprazole] as the molecule, how does the “Antimode for HI of omeprazole” value (CYP2C19 [1]; Colombians) read?
**A.** The value was 0.63.

**Q.** And the “Antimode for HI of omeprazole” value (CYP2C19 [1]; Indian)?
**A.** Its value is 14.4.

**Q.** And the “Antimode for HI of omeprazole” value (CYP2C19 [1]; Koreans)?
**A.** The value was 7.0.

**Q.** What about the “Mean HI, fold higher in CYP2C19*1*1 than CYP2C19*1*17” value (CYP2C19 [1]; Ramsjö et al.) of the same molecule?
**A.** Its value is 1.1 fold.

**Q.** What about the “Mean HI, fold higher in CYP2C19*1*1 than CYP2C19*17*17” value (CYP2C19 [1]; Ramsjö et al.) of the same molecule?
**A.** Its value is 3.2 fold.

**Q.** What about the “Median HI, fold higher in homozygous CYP2C19*1 than CYP2C19*1*17 carriers” value (CYP2C19 [1]; Sim et al.) of the same molecule?
**A.** Its value is 1.2 fold.

**Q.** And the “Median HI, fold higher in homozygous CYP2C19*1 than homozygous CYP2C19*17 carriers” value (CYP2C19 [1]; Sim et al.)?
**A.** The value was 2 fold.

**Q.** What about the “Antimode for HI of omeprazole” value (CYP2C19 [1]; Thai population) of the same molecule?
**A.** The value was 7.0.

**Q.** And the “Antimode for HI of omeprazole” value (CYP2C19 [1]; West Mexicans)?
**A.** The value was 3.98.

**Q.** What about the Successful treatment response ([2]; EM genotype) of the same molecule?
**A.** The Successful treatment response was 43%.

**Q.** And the Successful treatment response ([2]; HetEM genotype)?
**A.** Its Successful treatment response is 95%.

**Q.** What about the “Median hydroxylation index (HI)” value (CYP2C19 [3]; CYP2C19 *1*1, 3 h after 20 mg omeprazole orally) of the same molecule?
**A.** The value was 0.78.

**Q.** And the “Median hydroxylation index (HI)” value (CYP2C19 [3]; CYP2C19 *1*17, 3 h after 20 mg omeprazole orally)?
**A.** Its value is 0.71.

**Q.** What about the “Omeprazole HI, women compared with men” value (CYP2C19 [4]; 60 women vs 120 men, P > 0.05) of the same molecule?
**A.** Its value is “not statistically different”.

**Q.** What about the “Median HI, fold higher in CYP2C19*1 homozygous than in CYP2C19*17 homozygous subjects” value (CYP2C19 [4]; *1*1 vs *17*17, P < 0.001) of the same molecule?
**A.** The value was 2.17 fold.

**Q.** What about the “Median HI, fold higher in CYP2C19*1*17 than in CYP2C19*17*17 subjects” value (CYP2C19 [4]; *1*17 vs *17*17, P < 0.001) of the same molecule?
**A.** The value was 1.97 fold.

**Q.** What about the “Mean HI ± SD” value (CYP2C19 [4]; genotype 1*1, Men (53)) of the same molecule?
**A.** The value was 0.89 ± 0.30.

**Q.** What about the “Mean HI ± SD” value (CYP2C19 [4]; genotype 1*1, Women (22)) of the same molecule?
**A.** Its value is 0.78 ± 0.27.

**Q.** And the “Mean HI ± SD” value (CYP2C19 [4]; genotype 1*2, Men (20))?
**A.** Its value is 2.29 ± 1.19.

**Q.** And the “Mean HI ± SD” value (CYP2C19 [4]; genotype 1*2, Women (13))?
**A.** The value was 2.24 ± 0.79.

**Q.** And the “Mean HI ± SD” value (CYP2C19 [4]; genotype 1*17, Men (37))?
**A.** Its value is 0.77 ± 0.32.

**Q.** What about the “Mean HI ± SD” value (CYP2C19 [4]; genotype 1*17, Women (15)) of the same molecule?
**A.** The value was 0.72 ± 0.18.

**Q.** What about the “Mean HI ± SD” value (CYP2C19 [4]; genotype 2*2, Men (1)) of the same molecule?
**A.** The value was 14.25.

**Q.** What about the “Mean HI ± SD” value (CYP2C19 [4]; genotype 2*2, Women (3)) of the same molecule?
**A.** The value was 13.37 ± 3.80.

**Q.** And the “Mean HI ± SD” value (CYP2C19 [4]; genotype 2*17, Men (2))?
**A.** Its value is 2.05 ± 0.67.

**Q.** What about the “Mean HI ± SD” value (CYP2C19 [4]; genotype 2*17, Women (4)) of the same molecule?
**A.** Its value is 1.97 ± 0.62.

**Q.** And the “Mean HI ± SD” value (CYP2C19 [4]; genotype 17*17, Men (5))?
**A.** The value was 0.36 ± 0.04.

**Q.** What about the “Mean HI ± SD” value (CYP2C19 [4]; genotype 17*17, Women (5)) of the same molecule?
**A.** Its value is 0.34 ± 0.08.

**Q.** What about the Median hydroxylation index (CYP2C19 [4]; men (120)) of the same molecule?
**A.** The Median hydroxylation index was 0.86.

**Q.** What about the Median hydroxylation index (CYP2C19 [4]; women (60)) of the same molecule?
**A.** The Median hydroxylation index was 0.84.

**Q.** And the “Omeprazole plasma concentration, women compared with men” value ([5]; 60 women vs 120 men, P > 0.05)?
**A.** The value was “not statistically different”.

**Q.** And the “Mean omeprazole plasma concentration, fold higher in CYP2C19*2*2 than CYP2C19*1*1” value ([5]; *2*2 vs *1*1, P < 0.001)?
**A.** The value was 11 fold.

**Q.** What about the “Mean omeprazole plasma concentration, fold higher in CYP2C19*2*2 than CYP2C19*17*17” value ([5]; *2*2 vs *17*17, P < 0.001) of the same molecule?
**A.** The value was 19.0 fold.

**Q.** What about the concentration at 3 h ([5]; both sexes, genotype 1*1, Total (75)) of the same molecule?
**A.** The concentration at 3 h was 125 ± 27.2 ng/mL.

**Q.** What about the concentration at 3 h ([5]; both sexes, genotype 1*2, Total (33)) of the same molecule?
**A.** The concentration at 3 h was 319 ± 150 ng/mL.

**Q.** And the concentration at 3 h ([5]; both sexes, genotype 1*17, Total (52))?
**A.** Its concentration at 3 h is 118 ± 10.2 ng/mL.

**Q.** And the concentration at 3 h ([5]; both sexes, genotype 2*2, Total (4))?
**A.** Its concentration at 3 h is 1390 ± 123 ng/mL.

**Q.** And the concentration at 3 h ([5]; both sexes, genotype 2*17, Total (6))?
**A.** The concentration at 3 h was 289 ± 97.5 ng/mL.

**Q.** And the concentration at 3 h ([5]; both sexes, genotype 17*17, Total (10))?
**A.** Its concentration at 3 h is 71 ± 10.3 ng/mL.

**Q.** And the concentration at 3 h ([5]; female, genotype 1*1, Women (22))?
**A.** The concentration at 3 h was 128 ± 39.9 ng/mL.

**Q.** What about the concentration at 3 h ([5]; female, genotype 1*2, Women (13)) of the same molecule?
**A.** The concentration at 3 h was 365 ± 265 ng/mL.

**Q.** What about the concentration at 3 h ([5]; female, genotype 1*17, Women (15)) of the same molecule?
**A.** Its concentration at 3 h is 120 ± 20.1 ng/mL.

**Q.** And the concentration at 3 h ([5]; female, genotype 2*2, Women (3))?
**A.** The concentration at 3 h was 1360 ± 133 ng/mL.

**Q.** What about the concentration at 3 h ([5]; female, genotype 2*17, Women (4)) of the same molecule?
**A.** The concentration at 3 h was 324 ± 39.9 ng/mL.

**Q.** And the concentration at 3 h ([5]; female, genotype 17*17, Women (5))?
**A.** Its concentration at 3 h is 68.3 ± 5.73 ng/mL.

**Q.** What about the concentration at 3 h ([5]; male, genotype 1*1, Men (53)) of the same molecule?
**A.** Its concentration at 3 h is 123 ± 20.8 ng/mL.

**Q.** What about the concentration at 3 h ([5]; male, genotype 1*2, Men (20)) of the same molecule?
**A.** Its concentration at 3 h is 290 ± 168 ng/mL.

**Q.** And the concentration at 3 h ([5]; male, genotype 1*17, Men (37))?
**A.** Its concentration at 3 h is 117 ± 16.1 ng/mL.

**Q.** And the concentration at 3 h ([5]; male, genotype 2*2, Men (1))?
**A.** Its concentration at 3 h is 1480 ng/mL.

**Q.** What about the concentration at 3 h ([5]; male, genotype 2*17, Men (2)) of the same molecule?
**A.** The concentration at 3 h was 271 ± 119 ng/mL.

**Q.** What about the concentration at 3 h ([5]; male, genotype 17*17, Men (5)) of the same molecule?
**A.** The concentration at 3 h was 73.7 ± 13.7 ng/mL.

From article PMC4266903, “Hydroxylation index of omeprazole in relation to CYP2C19 polymorphism and sex in a healthy Iranian population” (DARU Journal of Pharmaceutical Sciences, 2014)
